For 71 compounds, EC50, IC50 and outcome results are on record in PubChem BioAssay AID179 (DTP/NCI, 2004).

Calls of active or inactive are those of the source.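 The calls were made as follows: active = compounds giving half or more protection of infected cells from virus-caused growth loss, again on retest; inactive = the rest.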

In this assay the test system is CEM cells HIV-1 protection, formazan growth assay. The assay is described as follows: NCI AIDS Antiviral Assay. The following applies: for IC50: measured here: growth of uninfected CEM cells. In a few lines: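 Screen of anti-HIV-1 activity in human CEM cells using a formazan-based growth measurement at five drug concentrations. Hits with 50% or greater protection were repeated, and confirmation required reproducible complete protection.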

What is called EC50 is the midpoint of the concentration-response curve. As a reminder, the IC50 is the concentration needed to halve the response being measured. High values mean weaker potency in that assay, low ones greater potency in that assay. As to `O=C(Nc1ccc(O)cc1)C(Cl)(Cl)Cl`, the EC50 was over 200 µM and the IC50 was 39.8 µM.
Turning to `CNc1ccc(C)cc1S(=O)(=O)c1ccc([N+](=O)[O-])cc1`, the EC50 is over 200 µM and the IC50 was over 200 µM.
Consider `COc1ccc(C[C@H]2COC(=O)[C@@H]2Cc2ccc(OC)c(OC)c2)cc1OC`, for which the EC50 is over 200 µM and the concentration for half-maximal inhibition (IC50) was found to be 123 µM.
`N#Cc1c(C#N)c(-c2ccccc2)n(-c2ccccc2)c1N`: the EC50 is over 200 µM and the half-inhibitory concentration (IC50) came to 53.7 µM.
Turning to `Cc1cn(CC2=NC3CCCCC3N2)c(=O)[nH]c1=O` (centres undefined), the EC50 is over 200 µM and the 50% inhibitory concentration (IC50) is over 200 µM.
For the compound `CN(C)/N=N/c1nc2c(c(=O)n(C)c(=O)n2C)n1C`, the EC50 is over 151 µM and the IC50 is over 151 µM.
`COC(=O)CCC(=O)c1ccc2c(c1)CC1(Cc3ccccc3C1)C2`: the EC50 is over 200 µM and the half-maximal inhibitory concentration (IC50) amounted to 46.8 µM.
Regarding `O=C1CC2(CCC(O)(c3cccc4ccccc34)C(C(=O)c3cccc4ccccc34)C2)C(=O)c2ccccc2N1` (centres undefined), the EC50 is over 200 µM and the IC50 is 110 µM.
`CC(Cl)CN1c2ccccc2Sc2ccc(Cl)cc21` (centres undefined): the EC50 was over 200 µM and the half-maximal inhibitory concentration (IC50) was 132 µM.
Turning to `CCCCOP(=O)(/C=C/c1ccc([N+](=O)[O-])cc1)OCCCC`, the EC50 is over 20.9 µM and the half-maximal inhibitory concentration (IC50) was over 20.9 µM.
`O=C1CSC(c2cccc(Cl)c2)N1c1ccc(-c2ccc(-n3c(-c4ccccc4)nc4ccccc4c3=O)cc2)cc1` (centres undefined): the EC50 was over 200 µM and the 50% inhibitory concentration (IC50) is 21.9 µM.
The matching figures for `CNC(=S)N/N=C(C)\C(=N/NC(=S)NC)c1ccccc1`: over 200 µM and 29.5 µM.
As for `Nc1nc(=Nc2ccccc2)ss1`, the result was inactive.
In the case of `Cc1ccc(S(=O)(=O)c2c(O)c3ccc(O)c(C)c3oc2=O)cc1`, the EC50 is over 200 µM and the IC50 is over 200 µM.
For the compound `Brc1ccccc1C1SCc2nc3ncccc3n21` (centres undefined), the EC50 was over 77.6 µM and the IC50 was over 77.6 µM.
On to `Nc1nncs1`, for which the EC50 was over 1780 µM and the IC50 is 871 µM.
In the case of `CCOC(=O)/C(Cc1cc[n+]([O-])cc1)=N/O`, the result was inactive.
Turning to `O=C1CN(CC2=CC3(CC2)CCC2=C3CCCC2=O)C(=O)N1` (centres undefined), the EC50 is over 417 µM and the IC50 is over 417 µM.
With `Cc1nc2ccccc2c(=O)n1NC(=S)Nc1cccc(Cl)c1`, the EC50 was over 20.9 µM and the half-inhibitory concentration (IC50) was over 20.9 µM.
Regarding `COC1=C2C[C@](OC)(C#CC=CC#CC2O)CC1(C)C` (some centres undefined), the EC50 was over 200 µM and the 50% inhibitory concentration (IC50) worked out at 97.7 µM.
Consider `CCc1nnc2sc3c(Cl)c4nn5c(CC)nnc5sc4c(Cl)c3nn12`, for which the EC50 is over 200 µM and the IC50 came out at 11.7 µM.
Turning to `CC(C)c1c(O[Si](C(C)C)(C(C)C)C(C)C)c2c3c(ccc4c3c1OC4(C)C)C(C)CC2` (centres undefined), the EC50 was over 200 µM and the concentration for half-maximal inhibition (IC50) is over 200 µM.
`CCC1(CCCC=C(c2cc(Cl)c(OC)c(C(=O)OC)c2)c2cc(Cl)c(OC)c(C(=O)OC)c2)OCCO1`: the EC50 was over 200 µM and the IC50 came out at 148 µM.
Regarding `C[C@@H](CC(=O)O)OC1OC(COC(=O)C(C)(C)C)C(OC(=O)C(C)(C)C)C(OC(=O)C(C)(C)C)C1OC(=O)C(C)(C)C` (some centres undefined), the EC50 was over 200 µM and the 50% inhibitory concentration (IC50) was found to be 27.5 µM.
Consider `Cc1ccccc1C(C#N)C(=O)C(=O)Nc1cccc(Cl)c1` (centres undefined), for which the EC50 is over 417 µM and the concentration for half-maximal inhibition (IC50) is over 417 µM.
Consider `Cc1ccc2cc(NC(=O)CBr)c3ccc(C)nc3c2n1.Cc1ccc2cc(NC(=O)CBr)c3ccc(C)nc3c2n1.O=C1OC(C(O)C[O-])C(O)=C1O.[Cu+]`, for which the EC50 is over 12.6 µM and the 50% inhibitory concentration (IC50) was determined as 3.02 µM.
Regarding `O=C1C=C(N2CCCCC2)c2cnccc2C1=O`, the result was inactive.
Take `NS(=O)(=O)C1CCCCC1C(=O)NNC(=O)C(=O)Nc1nc(=S)[nH][nH]1` (centres undefined): the EC50 is over 646 µM and the 50% inhibitory concentration (IC50) was over 646 µM.
As for `c1cc2c(cc1NC1=NCCO1)CCCC2`, the EC50 was over 200 µM and the half-maximal inhibitory concentration (IC50) was found to be 1.55 µM.
Regarding `CC12CC3CC/C(=N\O)C(C1)C3(N1CCOCC1)C/C2=N/O` (centres undefined), the EC50 is over 200 µM and the IC50 was over 200 µM.
Turning to `O=C(c1ccco1)N(C(=S)N1CCN(c2ccccc2)CC1)C1CCCCC1`, the EC50 is over 18.2 µM and the IC50 was 12.6 µM.
For `Clc1ccc(SSc2ccc(Cl)cc2Cl)c(Cl)c1`, the EC50 is over 200 µM and the half-maximal inhibitory concentration (IC50) came to 6.76 µM.
As for `COC(=O)[C@H](Cc1ccccc1)NP(=O)(OCCC#N)OCC1OC(n2cc(C)c(=O)[nH]c2=O)CC1N=[N+]=[N-]` (some centres undefined), the EC50 was 0.513 µM and the IC50 is over 200 µM.
`CCOC(=O)c1nc2ccc(C(F)(F)F)cc2nc1NCc1ccc(Cl)c(Cl)c1`: the EC50 was over 100 µM and the IC50 came out at 17 µM.
Consider `COc1ccc(OC)c2[nH]c(CCc3nc4c(OC)ccc(OC)c4[nH]3)nc12`, for which the outcome was inactive.
As to `C[N+]1=C(c2ccc[nH]2)CC(C(=O)[O-])CC1` (centres undefined), the EC50 was over 200 µM and the half-inhibitory concentration (IC50) is over 200 µM.
`Nc1cc(C(=O)Nc2ccc(C3=NCCN3)cc2)cc(C(=O)Nc2ccc(C3=NCCN3)cc2)c1`: the concentration giving a half-maximal response (EC50) is 16.2 µM and the IC50 amounted to 145 µM.
The matching figures for `C1CSCC2(COC2)CS1`: over 1410 µM and 1320 µM.
For `CN1C(=O)C2CC(=O)N(Cc3ccccc3)C(=O)C2C1=O` (centres undefined), the EC50 was over 288 µM and the IC50 is over 288 µM.
Consider `CN(C)c1c(-c2ccc(Cl)cc2)cc(-c2ccccc2)[nH]c1=O`, for which the EC50 is over 20.9 µM and the IC50 was over 20.9 µM.
Consider `N#CCCN(CCN(CCN(C(=O)Nc1ccccc1)c1ccccc1)C(=O)Nc1ccccc1)C(=O)Nc1ccccc1`, for which the EC50 was over 200 µM and the concentration for half-maximal inhibition (IC50) came to 9.33 µM.
As to `CC1=C(C)C(N2CCOCC2)CS(=O)(=O)O1` (centres undefined), the EC50 is over 200 µM and the concentration for half-maximal inhibition (IC50) is over 200 µM.
For `N#Cc1cc2c(n(NS(=O)(=O)c3ccccc3)c1=O)CCCC2`, the EC50 is over 200 µM and the half-inhibitory concentration (IC50) is over 200 µM.
Regarding `C=C=C(C(=O)OC)S(=O)c1ccccc1[N+](=O)[O-]` (centres undefined), the result was inactive.
Regarding `O=c1[nH]c(=O)n2c3c1ncn3CC=CC2`, the EC50 is over 35.5 µM and the 50% inhibitory concentration (IC50) came out at 17 µM.
On to `CCOC(=O)/C(=C\c1cccc(OC)c1)C(C)=O`, for which the EC50 is over 525 µM and the 50% inhibitory concentration (IC50) was 95.5 µM.
For `c1ccc([P+](CCC[P+](c2ccccc2)(c2ccccc2)c2ccccc2)(c2ccccc2)c2ccccc2)cc1`, the EC50 is over 200 µM, the outcome was inactive and the concentration for half-maximal inhibition (IC50) turned out to be 135 µM.
With `CC(CNC(=O)c1ccccc1)(CNC(=O)c1ccccc1)[N+](=O)[O-]`, the result was inactive.
In the case of `C1COCCOP2(N3CC3)=NP(N3CC3)(=NP(N3CC3)(N3CC3)=N2)OCCOCCO1` (centres undefined), the EC50 was over 200 µM and the half-inhibitory concentration (IC50) came out at 21.4 µM.
With `C/C(CN1C(=O)c2ccccc2C1=O)=N\NS(=O)(=O)c1ccc(C)cc1`, the EC50 is over 355 µM and the IC50 was over 355 µM.
For `CCOC(=O)NC(NNc1ccc([N+](=O)[O-])cc1[N+](=O)[O-])(C(F)(F)F)C(F)(F)F`, the EC50 is over 200 µM and the IC50 is 43.7 µM.
On to `O=C(N/N=C(\c1nc2ccc(Cl)cc2[nH]c1=O)C(O)c1ccccc1Cl)c1ccncc1` (centres undefined), for which the EC50 is over 537 µM and the concentration for half-maximal inhibition (IC50) is over 537 µM.
On to `CCN(CC)C(=S)[S][Bi]([S]C(=S)N(CC)CC)[S]C(=S)N(CC)CC`, for which the EC50 was over 7.94 µM and the IC50 came out at 0.11 µM.
Turning to `CCCCNC(=S)Nc1nc(C(=O)NNC(=O)c2ccccc2)cs1`, the EC50 was over 200 µM and the half-inhibitory concentration (IC50) worked out at 11.2 µM.
As to `O=C(OC1C#CCSCC#C/C=C\1)c1cnc2ccccc2n1` (centres undefined), the EC50 is over 200 µM and the half-inhibitory concentration (IC50) was found to be 33.1 µM.
Turning to `COc1cc(NC=O)c2c(c1)SC(C)C(=O)N2` (centres undefined), the EC50 was 141 µM and the IC50 was over 200 µM.
The matching figures for `CCOC(=O)C1C(C(=O)OCC)N2c3ccccc3-c3cccnc3[C@@H]2[C@H]1C(=O)OCC` (some centres undefined): over 100 µM and 95.5 µM.
The matching figures for `COc1ccc(C2c3cc4c(cc3OC(NNS(=O)(=O)c3ccc(C)cc3)C2C)OCO4)cc1` (centres undefined): over 200 µM and 26.3 µM.
In the case of `CC(=O)C(=Cc1ccc(C=C(C(C)=O)C(C)=O)cc1)C(C)=O`, the EC50 was over 200 µM and the half-maximal inhibitory concentration (IC50) amounted to 0.933 µM.
On to `CN(C)c1nc(NC23CC4CC(CC(C4)C2)C3)nc(N(C)C)n1`, for which the EC50 is over 200 µM and the half-inhibitory concentration (IC50) is 5.01 µM.
As to `c1ccc(N=C2SC(c3ccccc3)CN2C23CC4CC(CC(C4)C2)C3)cc1` (centres undefined), the EC50 was over 200 µM and the IC50 is over 200 µM.
Consider `O=C(Nc1ccc(Cl)cc1C(F)(F)F)C(=O)C1CCCS1(=O)=O` (centres undefined), for which the result was inactive.
Consider `CC(=O)OC(C)(C)/C=C/C(=O)[C@](C)(O)[C@H]1[C@H](O)C[C@@]2(C)[C@@H]3CC=C4[C@@H](C[C@H](O)[C@H](O)C4(C)C)[C@]3(C)C(=O)C[C@]12C`, for which the EC50 is over 0.2 µM and the IC50 was determined as 0.0912 µM.
The matching figures for `O=C1NC(=O)C2(CC2)C(=O)N1`: over 200 µM and 13.2 µM.
The matching figures for `COc1cc2c(cc1OC)[C@H]1C(=O)c3cc4c(cc3[C@H]1N(C)C2=O)OCO4`: over 37.2 µM and 0.479 µM.
`CC1(C)N=C(C(=O)c2ccccc2)N(O)C1(O)c1ccccc1` (centres undefined): the EC50 is over 200 µM and the IC50 is 135 µM.
As to `O=S(=O)(O)c1ccc(NNc2ccc(S(=O)(=O)O)cc2)cc1`, the outcome was inactive.
`CC1=CC(C)(C)N=C2SC(c3ccc(Cl)cc3)=NN12`: the EC50 was over 24.5 µM and the IC50 was determined as 20 µM.
Turning to `Cc1cn(C(Cc2ccccc2)OCCN2C(=O)c3ccccc3C2=O)c(=O)[nH]c1=O` (centres undefined), the EC50 was over 200 µM and the IC50 is over 200 µM.
Turning to `CCCCCCCCCCCCCCCC(=O)OCC1OC(CO)(OC2OC(CO)C(O)C(O)C2O)C(O)C1O` (centres undefined), the EC50 was over 200 µM and the 50% inhibitory concentration (IC50) was 64.6 µM.
Regarding `Cc1cc(N(CCC#N)CCC#N)ccc1/C=C1N=C(/C=C\c2ccccc2)N(NC(=O)CC(=O)Nc2ccccc2Cl)C\1=O`, the result was inactive.
